The values below come from patent publication US10543183B2, “Treatment and diagnosis of melanoma” (The Rockefeller University, priority 2012, dated 2020).

The subject of assay [1] is breast cancer, renal cell cancer and pancreatic cancer cell lines. The experiment in a line: endothelial recruitment by other cancer types. The assay is classed as cell-based, human.
Assay [2] concerns endothelial cells (HUVEC). The experiment in a line: endothelial migration and chemotaxis assays. The assay is classed as cell-based, human. The following applies: cancer cell-free system. The procedure:
Serum-starved HUVEC's were pulsed with Cell Tracker Red CMTPX dye for 45 minutes and seeded into HTS Fluoroblock trans-well inserts at a concentration of 1×10^5 HUVEC's in 0.5 mL starvation media per each insert. The assay was allowed to proceed for 16-18 hours at 37° C., and the inserts were processed and analyzed as described above (See Matrigel Invasion Assay).
HUVEC's were serum-starved in 0.2% FBS EGM-2 media for 16 hours and labeled with Cell Tracker Red CMTPX dye for 45 minutes. Meanwhile, the indicated amounts (1-5 μg) of recombinant human ApoE3 or BSA were mixed with 250 μL of matrigel (356231, BD Biosciences) and allowed to solidify at the bottom of a 24-well plate for 30 min. 250 μL of HUVEC EGM-2 media containing 0.2% FBS was then added to each matrigel-coated well, and […] HTS Fluoroblock inserts were fitted into each well. 1×10^5 HUVEC's, resuspended in 0.5 mL of starvation media, were seeded into each insert and allowed to migrate along the matrigel gradient for 16-18 hours at 37° C. Upon completion of the assay, the inserts were mounted on slides and analyzed as described above (See Matrigel Invasion Assay).

Assay [3] relates to DNAJA4 expression in MeWo cells. As to the kind of experiment: DNAJA4 mRNA expression by qRT-PCR in melanoma cells. In kind it is cell-based, human. The following applies: parental MeWo cells, 48 hours. On the procedure: Total RNA was extracted from various cell lines using the miRvana kit (AM1560, Applied Biosystems, Austin, Tex.). The expression levels of mature miRNAs were quantified using the Taqman miRNA expression assay (4427975-0002228, Applied Biosystems). RNU44 was used as an endogenous control for normalization. For mRNA expression analyses, 600 ng of total RNA was reverse transcribed using the cDNA First-Strand Synthesis Kit (18080-051, Invitrogen), and roughly 200 ng of the resulting cDNA was then mixed with SYBR green PCR Master Mix (4309155, Applied Biosystems) and the appropriate primers. Each reaction was performed in quadruplicate, and mRNA expression was quantified by performing real-time PCR amplification using an ABI Prism 7900HT Real-Time PCR System (Applied Biosystems). GAPDH was used as an endogenous control for normalization. The following primers were used: […]
Background: Quantitative PCR measures a nucleic acid by following its amplification.

Assay [4] has as its system Tyr::CreER; B-RafV600E/+; Ptenlox/+ and Ptenlox/lox mice. The experiment in a line: genetically-initiated model of melanoma progression. The assay is classed as in vivo, mouse. The procedure:
The Tyr::CreER; B-Raf^V600E/+; Pten^lox/+/Tyr::CreER; B-Raf^V600E/+; Pten^lox/lox conditional model of melanoma progression was previously established and characterized by Dankort et al. (2009). Briefly, melanoma in these mice was induced at 6 weeks of age by intraperitoneally injecting 4-HT (H6278, 70% isomer, Sigma-Aldrich, St Louis, Mo.) at 25 mg/kg administered in peanut oil on three consecutive days. The 4-HT stock solution was prepared by dissolving it in 100% EtOH at 50 mg/mL by heating at 45° C. for 5 min and mixing. Once dissolved, the stock 4-HT solution was then diluted by 10-fold in peanut oil, yielding a 5 mg/mL 4-HT working solution that was then injected into mice. After the first 4-HT injection, mice were blindedly assigned to receive either a control diet or a diet supplemented with GW3965 (100 mg/kg). Mice were examined three times a week for the presence and progression of melanoma lesions. At day 35, dorsal skin samples were harvested from control-treated and GW3965-treated mice, fixed in 4% PFA and photographed at 10×. The percentage of pigmented melanoma lesion area out of the total skin area was quantified using ImageJ. For survival analyses, mice were monitored daily for melanoma progression and euthanized according to a standard body condition score, taking into account initial signs of moribund state and discomfort associated with the progression of melanoma burden. Post-mortem, the lungs, brains, and salivary glands were harvested and examined for the presence of macroscopic melanoma lesions.

Assay [5] has as its system B-RafV600E/+; Pten−/−; CDKN2A−/− primary mouse melanoma cells. The experiment in a line: B-RafV600E/+; Pten−/−; CDKN2A−/− melanoma cells in syngeneic mice. In kind it is in vivo. The procedure: Melanoma cells used for in vivo metastasis assays were transduced with a stably expressed retroviral construct encoding a luciferase reporter gene (Ponomarev et al., 2004), allowing us to monitor the in vivo progression of melanoma cells by bioluminescence imaging. The following numbers of melanoma cells, resuspended in 100 μL of PBS, were injected intravenously via the tail-vein: 4×10^4 MeWo cells, 2.5×10^5 HT-144 cells, 2×10^5 SK-Mel-334.2 cells, 5×10^4B 16F10 cells, and 1×10^5YUMM cells. The MeWo, HT-144, and SK-Mel-334.2 cells were injected into 6-8 week-old sex-matched NOD scid mice, while the B16F10 and YUMM cells were injected into 6-8 week-old sex-matched C57BL/6 mice. […] To assess the effect of GW3965 treatment on brain metastasis, 1×10^5 MeWo brain-metastatic derivatives were injected intracardially into athymic nude mice. Immediately following injection, mice were randomly assigned to a control diet or GW3965-supplemented diet (100 mg/kg). To determine whether oral delivery of GW3965 can inhibit the progression of incipient metastasis, NOD Scid mice were intravenously injected with 4×10^4MeWo cells and the cells were allowed to colonize the lungs for 42 days, after which mice were blindedly assigned to a control diet or a GW3965-supplemented diet (100 mg/kg) treatment.

Structures can show the parent of a compound that is named as a salt.

For “recombinant ApoE3: recombinant human ApoE3 (4696, BioVision)”, in assay [1], the “endothelial recruitment across breast, renal cell and pancreatic cancer” value was “inhibited”. In addition, the “endothelial migration in trans-well and gradient-based chemotactic assay” value in assay [2] is “sufficient to inhibit”.

On to `O=C(O)Cc1cccc(OCCCN(Cc2cccc(C(F)(F)F)c2Cl)CC(c2ccccc2)c2ccccc2)c1` [GW3965 2, 3-[3-[N-(2-Chloro-3-trifluoromethylbenzyl)-(2,2-diphenylethyl)amino]propyloxy] phenylacetic acid hydrochloride], for which the “expression of DNAJA4” value in assay [3] is given as “increased expression”. Besides, in assay [4] (Ptenlox/lox mice, chow 100 mg/kg), the “number of lymphatic metastases detected post-mortem” value is “decrease”. In addition, the tumor progression entry in assay [4] (oral, diet 100 mg/kg after melanoma initiation) is recorded as “attenuated”. Besides, the overall survival times entry in assay [4] (oral, diet 100 mg/kg, Ptenlox/+ and Ptenlox/lox mice) is recorded as “significantly extended”. In assay [5] (chow 100 mg/kg), the tumor growth result was “robustly inhibited”. Further, in assay [5] (diet 100 mg/kg), the lung metastasis result is on record as “robustly inhibited” and the overall survival result is “extended”.
